From patent publication US11000708B2 (priority 2015, dated 2021)
Like-named read-outs stand apart in the source and are kept apart here.

Legend:
[1] = test system: M. tuberculosis H37Rv (ATCC 27294); conditions: reported abroad; cited from earlier work
[2] = test system: Mycobacterium tuberculosis; conditions: against Mycobacterium tuberculosis; reported domestically; cited from earlier work
drug-resistant bacteria = conditions: reported domestically; cited from earlier work
[3] = test system: sensitive Mycobacterium tuberculosis; conditions: reported domestically; cited from earlier work
[4] = test system: Mycobacterium tuberculosis standard strains H37Rv; conditions: quality control H37Rv

CC[C@H]1OC(=O)C[C@@H](O)[C@H](C)[C@@H](O[C@@H]2O[C@H](C)[C@@H](O[C@H]3C[C@@](C)(O)[C@@H](O)[C@H](C)O3)[C@H](N(C)C)[C@H]2O)[C@@H](CC=O)C[C@@H](C)C(=O)/C=C/C(C)=C/[C@@H]1CO[C@@H]1O[C@H](C)[C@@H](O)[C@@H](OC)[C@H]1OC [tylosin]
MIC [1]: 58.6 micrograms/milliliter

CC[C@H]1OC(=O)[C@H](C)[C@@H](O[C@H]2C[C@@](C)(OC)[C@@H](O)[C@H](C)O2)[C@H](C)[C@@H](O[C@@H]2O[C@H](C)C[C@H](N(C)C)[C@H]2O)[C@](C)(O)C[C@@H](C)CN(C)[C@H](C)[C@@H](O)[C@]1(C)O [azithromycin]
MIC [2]: 128 micrograms/milliliter
MIC [1]: 95 micrograms/milliliter

CC[C@H]1OC(=O)[C@H](C)[C@@H](O[C@H]2C[C@@](C)(OC)[C@@H](O)[C@H](C)O2)[C@H](C)[C@@H](O[C@@H]2O[C@H](C)C[C@H](N(C)C)[C@H]2O)[C@](C)(O)C[C@@H](C)/C(=N\OCOCCOC)[C@H](C)[C@@H](O)[C@]1(C)O [roxithromycin]
MIC [1]: greater than or equal to 64 micrograms/milliliter

CC[C@H]1OC(=O)[C@H](C)[C@@H](O[C@H]2C[C@@](C)(OC)[C@@H](O)[C@H](C)O2)[C@H](C)[C@@H](O[C@@H]2O[C@H](C)C[C@H](N(C)C)[C@H]2O)[C@](C)(OC)C[C@@H](C)C(=O)[C@H](C)[C@@H](O)[C@]1(C)O [clarithromycin]
MIC (drug-resistant bacteria): 2.0-32 micrograms/milliliter
MIC [1]: 6 micrograms/milliliter
MIC [3]: 0.25-2.0 micrograms/milliliter

carrimycin
growth of bacterial colonies on drug-containing culture medium ([4]; carrimycin 1 μg/ml): 4+ (positive (4+) if the bacterial colonies closely grow on the slant face of the culture medium and account for ¾ or more of the area of the slant face)
growth of bacterial colonies on drug-containing culture medium ([4]; carrimycin 20 μg/ml): −
